Reference: patent US4103008A, “7[2(2,3 Dioxopiperazin-1-yl-carbonylamino)substituted 2 phenylacetamido]-3-2'-thiadiazolyl cephalosporanic acid derivatives” (priority 1976, dated 1978)
In brackets after ≈: the same amount, converted by molar mass. Like-named read-outs stand apart in the source and are kept apart here.

Tests used:
[1] = system: Staphylococcus aureus FDA 209NIH, P-J C-1; assay: In vitro antibacterial activity (MIC); type: cell-based; conditions: Staphylococcus aureus FDA 209NIH, P-J C-1; in vitro; sodium salts; read-out: MIC
[2] = system: Streptococcus faecalis ATCC 8043; assay: In vitro antibacterial activity (MIC); type: cell-based; conditions: Enterococcus faecalis, ATCC8043
[3] = system: Bacillus substilis ATCC 6633; assay: In vitro antibacterial activity (MIC); type: cell-based; conditions: ATCC6633; Bacillus substilis ATCC 6633; in vitro; sodium salts; read-out: MIC
Escherichia coli C 73-1 = assay: In vitro antibacterial activity (MIC); type: cell-based; conditions: C731
Escherichia coli C 73-4 = assay: In vitro antibacterial activity (MIC); type: cell-based; conditions: C734
[4] = system: Salmonella enteritidis No. 11; assay: In vitro antibacterial activity (MIC); type: cell-based; conditions: Salmonella enterica; Salmonella enteritidis No. 11; in vitro; sodium salts; read-out: MIC
[5] = system: Pseudomonas strain C73-83; assay: In vitro antibacterial activity (MIC); type: cell-based; conditions: C7383; Pseudomonas strain C73-83; in vitro; sodium salts; read-out: MIC
Excerpt: (§1) Given below are the test results of in vitro antibacterial activity studies, serum concentrations and accumulative urinary excretions in rabbits and the protecting effects in mice, of some representative compounds of the invention.
(§2) The compounds used in the tests are shown in the following Table 1, but all of these compounds are in the form of the sodium salt.

[6] = system: Salmonella strain C 73-30; assay: In vitro antibacterial activity (MIC); type: cell-based; conditions: C7330; Salmonella strain C 73-30; in vitro; sodium salts; read-out: MIC
Excerpt: as §1, §2

Salmonella strain C73-1 = assay: In vitro antibacterial activity (MIC); type: cell-based; conditions: C731; Salmonella strain C73-1; in vitro; sodium salts; read-out: MIC
Excerpt: as §1, §2

[7] = system: Shigella dysenteriae shigae; assay: microbe, parasite or virus in culture; type: cell-based
Klebsilla pneumoniae = assay: In vitro antibacterial activity (MIC); type: cell-based
Proteus morganii kono = assay: In vitro antibacterial activity (MIC); type: cell-based; conditions: Morganella morganii; Proteus morganii kono; in vitro; sodium salts; read-out: MIC
Proteus morganii C73-23 = assay: In vitro antibacterial activity (MIC); type: cell-based; conditions: Morganella morganii, C7323; Proteus morganii C73-23; in vitro; sodium salts; read-out: MIC
[8] = system: Enterobacter strain C73-17; assay: In vitro antibacterial activity (MIC); type: cell-based; conditions: C7317; Enterobacter strain C73-17; in vitro; sodium salts; read-out: MIC
Serratia strain No. 1 = assay: In vitro antibacterial activity (MIC); type: cell-based
Serratia strain No. 2 = assay: In vitro antibacterial activity (MIC); type: cell-based
[9] = system: Pseudomonas aeruginosa C73-2; assay: In vitro antibacterial activity (MIC); type: cell-based; conditions: C732
[10] = system: Pseudomonas strain C73-63; assay: In vitro antibacterial activity (MIC); type: cell-based; conditions: C7363
[11] = system: Vibrio parahaemolyticus K - 3; assay: In vitro antibacterial activity (MIC); type: cell-based; conditions: K3
[12] = system: Vibrio parahaemolyticus K - 5; assay: In vitro antibacterial activity (MIC); type: cell-based; conditions: K5; Vibrio parahaemolyticus K - 5; in vitro; sodium salts; read-out: MIC
[13] = Serum concentration and accumulative urinary excretion in rabbit; conditions: in vivo, im
Experimental: as §1, §2
Each of the test compounds (20 mg/kg) was intramuscularly administered to one group of 3 rabbits, and the amounts of antibiotics were measured by a conventional method, using Sarcina lutea.

[14] = system: Pseudomonas aerugenosa E 2 strain; assay: ED50 in Pseudomonas infection in mice; type: in vivo; conditions: ICR-JCL mouse, male, 20g; P. aerugenosa E 2 3.6 × 10^4 intraperitoneal; compound intramuscular after 2 hrs.; ED50 after 7 days; sodium salts
Excerpt: as §1, §2
Pseudomonas aerugenosa E 2 strain (3.6 × 10^4) was intraperitonealy injected to each group of 10 of ICR-JCL mouse (male, 20g). After 2 hrs., each of the test compounds was intramuscularly administered to the infected mice and the ED50 values were measured after 7 days.

[15] = Streptococcus faecalis ATCC 8043, in vitro, sodium salts, read-out: MIC
[16] = Escherichia coli C 73-1, in vitro, sodium salts, read-out: MIC
[17] = Escherichia coli C 73-4, in vitro, sodium salts, read-out: MIC
[18] = Klebsilla pneumoniae, in vitro, sodium salts, read-out: MIC
[19] = Serratia strain No. 1, in vitro, sodium salts, read-out: MIC
[20] = Serratia strain No. 2, in vitro, sodium salts, read-out: MIC
[21] = Pseudomonas aeruginosa C73-2, in vitro, sodium salts, read-out: MIC
[22] = Pseudomonas strain C73-63, in vitro, sodium salts, read-out: MIC
[23] = Vibrio parahaemolyticus K - 3, in vitro, sodium salts, read-out: MIC
[24] = Pseudomonas aeruginosa C-73-2, read-out: Mic value against Pseudomonas aeruginosa C-73-2

**Q.** Which results are given for CCOC(=O)Oc1ccc([C@@H](NC(=O)N2CCN(CC)C(=O)C2=O)C(=O)NC2C(=O)N3C(C(=O)O)=C(CSc4nncs4)CS[C@H]23)cc1 (single isomer, unassigned) [V, 7-[D(-)-α-(4-ethyl-2,3-dioxopiperazin-1-yl-carbonylamino)-p-ethoxycarbonyloxyphenylacetamido]-3-(1,3,4-thiadiazol-2-yl-thiomethyl)-3-cephem-4-carboxylic acid]?
**A.** MIC [1]: 0.39 µg/mL; MIC [2, 15]: 12.5 µg/mL; MIC [3]: 0.78 µg/mL; MIC (Escherichia coli C 73-1; [16]): 1.56 µg/mL; MIC (Escherichia coli C 73-4; [17]): 3.13 µg/mL; MIC [4]: 0.2 µg/mL; MIC [5]: 25 µg/mL; MIC [6]: 1.56 µg/mL; MIC (Salmonella strain C73-1): 1.56 µg/mL; MIC [7]: 0.78 µg/mL (≈ 1.08 µM); MIC (Klebsilla pneumoniae; [18]): 0.39 µg/mL; MIC (Proteus morganii kono): 3.13 µg/mL; MIC (Proteus morganii C73-23): 12.5 µg/mL; MIC [8]: 3.13 µg/mL; MIC (Serratia strain No. 1; [19]): 3.13 µg/mL; MIC (Serratia strain No. 2; [20]): 3.13 µg/mL; MIC [9, 21]: 6.25 µg/mL; MIC [10, 22]: 6.25 µg/mL; MIC [11, 23]: 6.25 µg/mL; MIC [12]: 6.25 µg/mL; dose excreted at 6 h ([13]; 20 mg/kg): 24.1%; concentration at 0.5 h ([13]; 20 mg/kg intramuscular, after 30 mins., sodium salts, Sarcina lutea assay): 43000 ng/mL; ED50 in Pseudomonas infection in mice [14]: 1.0 mg/mouse

**Q.** With CCN1CCN(C(=O)N[C@@H](C(=O)NC2C(=O)N3C(C(=O)O)=C(CSc4nnc(C)s4)CS[C@H]23)c2ccc(O)cc2)C(=O)C1=O (single isomer, unassigned) [Example 8, 7-[D(-)-α-(4-ethyl-2,3-dioxopiperazin-1-yl-carbonylamino)-p-hydroxyphenylacetamido]-3-(5-methyl-1,3,4-thiadiazol-2-yl-thiomethyl)-3-cephem-4-carboxylic acid] as the molecule, how does the MIC [9, 24] read?
**A.** 25 µg/mL (≈ 37.8 µM)

**Q.** With Cc1nnc(SCC2=C(C(=O)O)N3C(=O)[C@@H](NC(=O)Cn4cnnn4)[C@H]3SC2)s1 [CEZ, sodium cefazolin, reference compound] as the molecule, how does the MIC [1] read?
**A.** < 0.05 µg/mL

**Q.** What about the MIC [2, 15] of the same molecule?
**A.** 2.5 µg/mL

**Q.** And the MIC [3]?
**A.** < 0.05 µg/mL

**Q.** What about the MIC (Escherichia coli C 73-1; Escherichia coli) of the same molecule?
**A.** 3.13 µg/mL

**Q.** What about the MIC (Escherichia coli C 73-4; [17]) of the same molecule?
**A.** 0.78 µg/mL

**Q.** And the MIC [4]?
**A.** 0.78 µg/mL

**Q.** What about the MIC [5] of the same molecule?
**A.** > 100 µg/mL

**Q.** What about the MIC [6] of the same molecule?
**A.** 0.78 µg/mL

**Q.** And the MIC (Salmonella strain C73-1)?
**A.** 0.78 µg/mL

**Q.** And the MIC [7]?
**A.** 0.78 µg/mL

**Q.** What about the MIC (Klebsilla pneumoniae; [18]) of the same molecule?
**A.** 0.78 µg/mL

**Q.** And the MIC (Proteus morganii kono)?
**A.** > 100 µg/mL

**Q.** And the MIC (Proteus morganii C73-23)?
**A.** > 100 µg/mL

**Q.** What about the MIC [8] of the same molecule?
**A.** 25 µg/mL

**Q.** What about the MIC (Serratia strain No. 1; [19]) of the same molecule?
**A.** > 100 µg/mL

**Q.** What about the MIC (Serratia strain No. 2; [20]) of the same molecule?
**A.** > 100 µg/mL

**Q.** And the MIC [9, 21]?
**A.** > 100 µg/mL

**Q.** What about the MIC [10, 22] of the same molecule?
**A.** > 100 µg/mL

**Q.** And the MIC ([11]; Vibrio parahaemolyticus)?
**A.** 1.56 µg/mL

**Q.** And the MIC [12]?
**A.** 12.5 µg/mL

**Q.** For CCN1CCN(C(=O)N[C@@H](C(=O)NC2C(=O)N3C(C(=O)O)=C(CSc4nnc(C)s4)CSC23)c2ccc(O)c(Cl)c2)C(=O)C1=O (single isomer, unassigned) [Example 7], which MIC [9, 24] is on record?
**A.** 12.5 µg/mL (≈ 18 µM)

**Q.** Which results are given for CC1(C)S[C@@H]2[C@H](NC(=O)C(C(=O)O)c3ccccc3)C(=O)N2[C@H]1C(=O)O (stereo partly drawn) [CB-PC, sodium carbenicillin, reference compound]?
**A.** MIC [1]: 0.2 µg/mL; MIC [2]: 6.25 µg/mL; MIC [3]: < 0.05 µg/mL; MIC (Escherichia coli C 73-1; [16]): > 100 µg/mL; MIC (Escherichia coli C 73-4; Escherichia coli): 6.25 µg/mL; MIC [4]: 0.39 µg/mL; MIC [5]: > 100 µg/mL; MIC [6]: 6.25 µg/mL; MIC (Salmonella strain C73-1): 6.25 µg/mL; MIC [7]: 0.78 µg/mL; MIC (Klebsilla pneumoniae): 6.25 µg/mL; MIC (Proteus morganii kono): 0.39 µg/mL; MIC (Proteus morganii C73-23): 1.56 µg/mL; MIC [8]: 25 µg/mL; MIC (Serratia strain No. 1; Serratia, NO.1): 3.13 µg/mL; MIC (Serratia strain No. 2; Serratia, NO.2): 3.13 µg/mL; MIC [9, 21]: 25 µg/mL; MIC ([10]; Pseudomonas): 12.5 µg/mL; MIC [11, 23]: > 100 µg/mL; MIC [12]: > 100 µg/mL; ED50 in Pseudomonas infection in mice [14]: 8.1 mg/mouse
